Structures can show the parent of a compound that is named as a salt.
System: patients undergoing general surgical procedures
Test: Example 17 trial: safety including Holter monitoring
Type: in vivo, human
Details: Safety Population
Excerpt: Patient safety was carefully monitored throughout the trial with traditional assessments of AEs, vital signs, routine laboratory testing, and Holter monitoring (i.e., continuous recording of electrocardiogram) for 3 days after dosing. Special attention was given to cardiovascular and neurological AE, as bupivacaine toxic effects are manifest in those two body systems. In addition, special assessments were done to monitor surgical wound condition and healing over the 30 days of the trial.

Structure (SMILES): CCCCN1CCCCC1C(=O)Nc1c(C)cccc1C (stereo not drawn) [bupivacaine HCl, bupivacaine hydrochloride]
- At Least One Cardiovascular TEAE (Cohort 1): 7 (39%)
- At Least One Neurological TEAE (Cohort 1): 4 (22%)
- At Least One Non-Opioid TEAE (Cohort 1): 17 (94%)
- At Least One Serious TEAE (Cohort 1): 4 (22%)
- At Least One Serious and Related TEAE (Cohort 1): 0
- At Least One Severe and Related TEAE (Cohort 1): 0
- At Least One TEAE (Cohort 1): 17 (94%)
- At Least One TEAE Leading to Study Discontinuation (Cohort 1): 0
- At Least One Wound Infection REAE (Cohort 1): 2 (11%)
- Deaths (Cohort 1): 0
- TEAE Maximum Relationship to Study Drug: Not Related (Cohort 1): 13 (72%)
- TEAE Maximum Relationship to Study Drug: Related (Cohort 1): 4 (22%)
- TEAE Maximum Severity: Mild (Cohort 1): 2 (11%)
- TEAE Maximum Severity: Moderate (Cohort 1): 11 (61%)
- TEAE Maximum Severity: Severe (Cohort 1): 4 (22%)
- At Least One Cardiovascular TEAE (Cohort 2): 2 (10%)
- At Least One Neurological TEAE (Cohort 2): 10 (50%)
- At Least One Non-Opioid TEAE (Cohort 2): 19 (95%)
- At Least One Serious TEAE (Cohort 2): 1 (5%)
- At Least One Serious and Related TEAE (Cohort 2): 0
- At Least One Severe and Related TEAE (Cohort 2): 1 (5%)
- At Least One TEAE (Cohort 2): 20 (100%)
- At Least One TEAE Leading to Study Discontinuation (Cohort 2): 1 (5%)
- At Least One Wound Infection REAE (Cohort 2): 1 (5%)
- Deaths (Cohort 2): 0
- TEAE Maximum Relationship to Study Drug: Not Related (Cohort 2): 10 (50%)
- TEAE Maximum Relationship to Study Drug: Related (Cohort 2): 10 (50%)
- TEAE Maximum Severity: Mild (Cohort 2): 2 (10%)
- TEAE Maximum Severity: Moderate (Cohort 2): 13 (65%)
- TEAE Maximum Severity: Severe (Cohort 2): 5 (25%)
